Measurements published in PubChem BioAssay AID2060620 (Molecular Pharmacology Branch, DTP, NCI, 2025).

Test system: 328373-195-R-J1-PDC complex spheroids, viability % test/control
Test: Anticancer human tumor 328373-195-R-J1-PDC patient-derived head and neck squamous carcinoma cell line growth inhibition [CLK]
Conditions: for IC50: curve of first compound; for viability, T/C: stronger effect = lower value; active = viability on the fitted dose curve at most 10% of control; inactive = the rest
Procedure, shortened: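 Multi-cell-type spheroids combined patient-derived tumor cells with HUVEC endothelial cells and human mesenchymal stem cells. Paired agents were dosed in half-log steps down from about clinical Cmax, or from 10 microM where Cmax was unknown.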

[1] = second compound 0.0316 µM, first compound 0.0316 µM
[2] = second compound 0.0316 µM, first compound 0.1 µM
[3] = second compound 0.0316 µM, first compound 0.316 µM
[4] = second compound 0.0316 µM, first compound 1 µM
[5] = second compound 0.0316 µM, first compound 3.16 µM
[6] = second compound 0.0316 µM, first compound 10 µM
[7] = second compound 0.1 µM, first compound 0.0316 µM
[8] = second compound 0.1 µM, first compound 0.1 µM
[9] = second compound 0.1 µM, first compound 0.316 µM
[10] = second compound 0.1 µM, first compound 1 µM
[11] = second compound 0.1 µM, first compound 3.16 µM
[12] = second compound 0.1 µM, first compound 10 µM
[13] = second compound 0.316 µM, first compound 0.0316 µM
[14] = second compound 0.316 µM, first compound 0.1 µM
[15] = second compound 0.316 µM, first compound 0.316 µM
[16] = second compound 0.316 µM, first compound 1 µM
[17] = second compound 0.316 µM, first compound 3.16 µM
[18] = second compound 0.316 µM, first compound 10 µM
[19] = second compound 1 µM, first compound 0.0316 µM
[20] = second compound 1 µM, first compound 0.1 µM
[21] = second compound 1 µM, first compound 0.316 µM
[22] = second compound 1 µM, first compound 1 µM
[23] = second compound 1 µM, first compound 3.16 µM
[24] = second compound 1 µM, first compound 10 µM
[25] = second compound 3.16 µM, first compound 0.0316 µM
[26] = second compound 3.16 µM, first compound 0.1 µM
[27] = second compound 3.16 µM, first compound 0.316 µM
[28] = second compound 3.16 µM, first compound 1 µM
[29] = second compound 3.16 µM, first compound 3.16 µM
[30] = second compound 3.16 µM, first compound 10 µM
[31] = second compound 10 µM, first compound 0.0316 µM
[32] = second compound 10 µM, first compound 0.1 µM
[33] = second compound 10 µM, first compound 0.316 µM
[34] = second compound 10 µM, first compound 1 µM
[35] = second compound 10 µM, first compound 3.16 µM
[36] = second compound 10 µM, first compound 10 µM
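Also: spheroids exposed to the agents for 7 days.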

COc1ccc([C@@H](O)c2cc(-c3ncnc4cc(N5CCOCC5)ccc34)c(F)cc2Cl)nn1 + CN1CCN(c2cc(C(=O)Nc3cc4cc(-c5cnn(C)c5)ccc4cn3)ccn2)CC1
< 0.0316 µM: IC50 (second compound 0.316 µM) | IC50 (second compound 1 µM) | IC50 (second compound 3.16 µM) | IC50 (second compound 10 µM)
inactive: viability, T/C [1] 91.6% | viability, T/C [2] 103% | viability, T/C [3] 91.1% | viability, T/C [4] 96.7% | viability, T/C [5] 71.7% | viability, T/C [6] 51.5% | viability, T/C [7] 73.2% | viability, T/C [8] 87.5% | viability, T/C [9] 73% | viability, T/C [10] 96.7% | viability, T/C [11] 71.5% | viability, T/C [12] 45.4% | viability, T/C [13] 21% | viability, T/C [14] 25.2% | viability, T/C [15] 20.6% | viability, T/C [16] 17.7% | viability, T/C [17] 21.5% | viability, T/C [18] 22.5%
active: viability, T/C [19] 0.11% | viability, T/C [20] 2.93% | viability, T/C [21] 2.16% | viability, T/C [22] 2.41% | viability, T/C [23] 1.4% | viability, T/C [24] 2.54% | viability, T/C [25] 2.66% | viability, T/C [26] 0.1% | viability, T/C [27] 0.14% | viability, T/C [28] 0.11% | viability, T/C [29] 3.57% | viability, T/C [30] 2.6% | viability, T/C [31] 1.28% | viability, T/C [32] 1.19% | viability, T/C [33] 0.19% | viability, T/C [34] 0.13% | viability, T/C [35] 0.17% | viability, T/C [36] 1.61%
> 10 µM: IC50 (second compound 0.0316 µM)
8.16 µM: IC50 (second compound 0.1 µM)

COc1cccc2c1C(=O)c1c(O)c3c(c(O)c1C2=O)CC(O)(C(=O)CO)CC3OC1CC(N)C(O)C(C)O1 (stereo unspecified) + CN1CCN(c2cc(C(=O)Nc3cc4cc(-c5cnn(C)c5)ccc4cn3)ccn2)CC1
inactive: viability, T/C [1] 13.4% | viability, T/C [7] 14.7% | viability, T/C [13] 13.2%
active: viability, T/C [2] 8.66% | viability, T/C [3] 2.1% | viability, T/C [4] 0.22% | viability, T/C [5] 2.55% | viability, T/C [6] 1.06% | viability, T/C [8] 5.57% | viability, T/C [9] 0.44% | viability, T/C [10] 0.19% | viability, T/C [11] 0.12% | viability, T/C [12] 1.87% | viability, T/C [14] 2.4% | viability, T/C [15] 3.38% | viability, T/C [16] 1.11% | viability, T/C [17] 0.1% | viability, T/C [18] 2% | viability, T/C [19] 1.05% | viability, T/C [20] 2.51% | viability, T/C [21] 4.63% | viability, T/C [22] 0.09% | viability, T/C [23] 1.51% | viability, T/C [24] 0.08% | viability, T/C [25] 0.07% | viability, T/C [26] 4.11% | viability, T/C [27] 0.93% | viability, T/C [28] 0.07% | viability, T/C [29] 1.76% | viability, T/C [30] 0.11% | viability, T/C [31] 0.1% | viability, T/C [32] 0.75% | viability, T/C [33] 0.41% | viability, T/C [34] 0.11% | viability, T/C [35] 2.76% | viability, T/C [36] 0.61%
< 0.0316 µM: IC50 (second compound 0.0316 µM) | IC50 (second compound 0.1 µM) | IC50 (second compound 0.316 µM) | IC50 (second compound 1 µM) | IC50 (second compound 3.16 µM) | IC50 (second compound 10 µM)

C=C(F)C(=O)N1CCN(c2nc(OCC3CCCN3C)nc3c2CCN(c2cccc4cccc(Cl)c24)C3)CC1CC#N (stereo unspecified) + CNC(=O)c1ccc(Nc2nc(OC3CCCC3)c3c(-c4ccc5nc(C)oc5c4)c[nH]c3n2)c(OC)c1
1.81 µM: IC50 (second compound 0.0316 µM)
active: viability, T/C [6] 0.11% | viability, T/C [9] 8.18% | viability, T/C [10] 10.4% | viability, T/C [11] 10.7% | viability, T/C [12] 0.09% | viability, T/C [14] 8.47% | viability, T/C [15] 10.6% | viability, T/C [16] 8.2% | viability, T/C [17] 8.71% | viability, T/C [18] 0.79% | viability, T/C [20] 9.75% | viability, T/C [21] 8.98% | viability, T/C [22] 8.73% | viability, T/C [23] 11.3% | viability, T/C [24] 0.08% | viability, T/C [27] 9.7% | viability, T/C [28] 10.9% | viability, T/C [29] 9.36% | viability, T/C [30] 0.12% | viability, T/C [33] 9.68% | viability, T/C [34] 10.4% | viability, T/C [35] 11.6% | viability, T/C [36] 0.19%
inactive: viability, T/C [1] 55% | viability, T/C [2] 57.6% | viability, T/C [3] 57% | viability, T/C [4] 57.2% | viability, T/C [5] 43.8% | viability, T/C [7] 11.2% | viability, T/C [8] 9.34% | viability, T/C [13] 10.5% | viability, T/C [19] 8.55% | viability, T/C [25] 11.6% | viability, T/C [26] 10% | viability, T/C [31] 11.1% | viability, T/C [32] 11.5%
< 0.0316 µM: IC50 (second compound 0.1 µM) | IC50 (second compound 0.316 µM) | IC50 (second compound 1 µM) | IC50 (second compound 3.16 µM) | IC50 (second compound 10 µM)
